The term Emax denotes the greatest response seen or fitted, relative to the assay's reference. As a reminder, the IC50 is the point on the concentration scale where inhibition reaches its midpoint.

The text below walks through data of patent publication US12486253B2, “Therapeutics for the degradation of mutant BRAF” (C4 THERAPEUTICS, INC., priority 2021, dated 2025).

The structures appear in SMILES notation. “Also recorded” adds a separate entry of the source. Where two headings read alike, the source gives them in different places.

In one assay the target is BRAF V600E (Homo sapiens, UniProt P15056, V600E). The assay can be described thus: HiBiT cellular BRAF^V600E degradation assay. Format: cell-based.
For the next assay, the system named is LOXL4. The assay can be described thus: Global proteomics profiling, A375 cells. Format: cell-based, human. Particulars: 300 nM, 24 hours. On the procedure:
Each cell line was treated in duplicate with either DMSO or Compound 157 (final concentration 300 nM) for 24 hours in an incubator at 37° C. with 5% CO2. After the 24-hour incubation, cells were harvested, washed twice with PBS, and snap frozen in liquid nitrogen. Samples were re-suspended in lysis buffer [8 M urea, 50 mM HEPES (pH 8.5), 50 mM NaCl, 1× protease inhibitor cocktail] and lysed by sonication at 4° C. with 85% amplitude in a pulse setting with 30 seconds on and 30 seconds off for a total sonication time of 5 minutes. Lysates were centrifuged at maximum speed for 10 minutes at 4° C. and the supernatant collected, reduced for 1 hour at room temperature with 5 mM TCEP, and the cysteine residues were then alkylated with 15 mM iodoacetamide (room temperature, in dark, 30 minutes). Protein content was extracted by methanol-chloroform precipitation and subsequent ice-cold acetone washes. Protein pellets were resuspended in 8 M urea, 50 mM HEPES (pH 8.5) buffer and protein concentrations were measured by BCA assay. […]
For peptide tandem mass tag (TMT) labeling, 100 μg of peptides per sample was prepared at […] concentration in 200 mM HEPES (pH 8.5), 30% acetonitrile (ACN) and each the specific TMT reagent. […] TMT reporter ion intensities were quantified by extracting the signal-to-noise ratio for each. […]

The test system of the next assay is phospho-ERK (T202/Y204). The assay can be described thus: HTRF phospho-ERK (T202/Y204) assay in A375-NRAS^Q61K cells. Particulars: 24 hrs, mean of at least n = 3, read-out: pERK IC50. Format: cell-based. The text has this:
A375-NRAS^Q61K cells (harboring BRAF homozygous V600E mutation and NRAS homozygous Q61K mutation) were purchased from ATCC. DMEM Medium without phenol red and supplemented with L-glutamine was purchased from Corning (Corning, NY, USA). Advanced phospho-ERK (Thr202/Tyr204) HTRF assay kits were purchased from Cisbio (Bedford, MA, USA). Cell culture flasks and 384-well microplates were acquired from VWR (Radnor, PA, USA) or Corning (Corning, NY, USA).
Degradation of activated phospho-ERK (T202/Y204) protein was determined based on quantification of FRET signal using the Advanced phospho-ERK (T202/Y204) HTRF assay kit. Test compounds were added to the 384-well plate from a top concentration of 10 μM with 11 points, half log titration in duplicates. A375-NRAS^Q61K cells were added into 384-well plates at a cell density of 2000 cells per well. The plates were kept at 37° C. with 5% CO2 for 24 hours. Cells treated in the absence of the test compound were the negative control. Positive control was set by wells containing all reagents but no cells. FRET signal was acquired on EnVision™ Multilabel Reader (PerkinElmer, Santa Clara, CA, USA).

Assay [1] deals with A375 NRAS^Q61K mutant melanoma cell line xenograft. Kind of assay: In vivo efficacy in A375 NRAS^Q61K mutant melanoma xenograft. Also noted: species or system BALBc/Nude mice. Particulars: oral gavage.

Chain of BRAF V600E (P15056 whole entry V600E): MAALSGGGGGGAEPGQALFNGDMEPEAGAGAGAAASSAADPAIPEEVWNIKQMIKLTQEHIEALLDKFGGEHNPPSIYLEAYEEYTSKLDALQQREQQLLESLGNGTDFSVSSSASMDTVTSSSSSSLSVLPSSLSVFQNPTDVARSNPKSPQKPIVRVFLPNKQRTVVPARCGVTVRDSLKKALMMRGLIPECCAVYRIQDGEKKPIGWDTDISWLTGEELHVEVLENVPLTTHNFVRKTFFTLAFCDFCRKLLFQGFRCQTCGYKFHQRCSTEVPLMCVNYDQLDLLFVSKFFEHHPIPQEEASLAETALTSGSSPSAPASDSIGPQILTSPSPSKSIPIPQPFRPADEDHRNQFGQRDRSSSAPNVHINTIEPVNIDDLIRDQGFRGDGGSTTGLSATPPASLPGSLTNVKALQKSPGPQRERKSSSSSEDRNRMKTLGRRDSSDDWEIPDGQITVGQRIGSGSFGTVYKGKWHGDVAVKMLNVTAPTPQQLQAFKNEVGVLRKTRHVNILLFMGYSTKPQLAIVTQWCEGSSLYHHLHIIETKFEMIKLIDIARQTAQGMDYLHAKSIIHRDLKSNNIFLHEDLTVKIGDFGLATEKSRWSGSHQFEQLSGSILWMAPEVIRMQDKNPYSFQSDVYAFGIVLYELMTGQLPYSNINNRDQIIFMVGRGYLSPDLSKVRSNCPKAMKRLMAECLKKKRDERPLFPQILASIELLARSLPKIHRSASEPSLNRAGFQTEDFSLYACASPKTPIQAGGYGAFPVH

For the compound `CCN(C)S(=O)(=O)Nc1ccc(F)c(Oc2ccc3ncn([C@H]4COC5(CCN(C(=O)CC6(O)CCN(c7cc8c(cc7F)c(N7CCC(=O)NC7=O)nn8C)CC6)CC5)C4)c(=O)c3c2)c1C#N` [Compound 157, (3R)-3-[6-[2-cyano-3-[[ethyl(methyl)sulfamoyl]amino]-6-fluorophenoxy]-4-oxoquinazolin-3-yl]-8-[2-[1-[3-(2,4-dioxo-1,3-diazinan-1-yl)-5-fluoro-1-methylindazol-6-yl]-4-hydroxypiperidin-4-yl]acetyl]-1-oxa-8-azaspiro[4.5]decane], on BRAF V600E, the BRAF protein degraded is reported as 74% and the “HiBit 24 h Emax” value is reported as 27.48%. Besides, the Emax at BRAF V600E (A-375, read-out: Emax BRAF^V600E degradation) came out at 26%. At BRAF V600E (read-out: HiBit 24 h Emax), the maximal response (Emax) is about 25%. Also, the “LOXL4 protein level change” value with LOXL4 is listed as “decreased”. In addition, in the assay on phospho-ERK (T202/Y204), the concentration for half-maximal inhibition (IC50) worked out at 7.8 nM. Moreover, the “tumor response, single agent” value in assay [1] (single agent) is recorded as “robust tumor growth inhibition; also recorded: efficacious”. The “tumor response, in combination with trametinib” value in assay [1] (with MEKi trametinib 0.1 mg/kg BID) was “tumor regressions”.
